pIC50: −log10 of the molar value.
Test system: 313798-341-R-J2-PDC spheroids, viability
Test: Anticancer human tumor 313798-341-R-J2-PDC patient-derived cervical squamous cell carcinoma cell line growth inhibition [PI3K]
Details: spheroids with HUVEC and MSC; for pIC50: curve of first compound; for viability, T/C: stronger effect = lower value
Excerpt: Combinatorial screen of targeted agents with the PI3K inhibitors inavolisib, alpelisib, duvelisib, and copanlisib in multi-cell type tumor spheroids
A high-throughput screen of multi-cell type tumor spheroids was designed to identify active combinations of targeted small molecules and PI3K pathway inhibitors. Complex spheroids include a stromal component modeled by human endothelial cells (HUVEC) and fibroblasts modeled by human mesenchymal stem cells (MSCs). The concentration ranges selected for each drug and investigational agent were based upon clinically achievable concentrations if the clinical Cmax of the agent was known.
Compounds. The drugs and investigational agents: inavolisib (NSC800729), alpelisib (NSC765974), duvelisib (NSC772469), copanlisib (NSC816437), ipatasertib (NSC767898), afuresertib (NSC778305), talazoparib (NSC767125), sapanisertib (NSC764658), selumetinib (NSC741078), tovorafenib (DAY101, NSC766906), vemurafenib (NSC761431), ravoxertinib (NSC781343), sotorasib (NSC818433), MRTX1133 (NSC 836407), abemaciclib (NSC 768073), palbociclib (NSC758247), venetoclax (NSC 766270), SY5609 (NSC837396), enzalutamide (NSC755605), and darolutamide (NSC825331), were obtained from the National Cancer Institute (NCI) Developmental Therapeutics Program Chemical Repository. The FDA-approved anticancer drug set is available from the NCI Developmental Therapeutics Program. […] The stock solutions were prepared in dimethyl sulfoxide (DMSO, Sigma-Aldrich, St. Louis, MO, cat. D2650) at 800-fold the tested concentration and stored at -70 degrees C prior to their use. All drugs and investigational agents were tested over a range starting from a high concentration at or near the clinical Cmax and decreasing in half-log increments. If the clinical Cmax for an agent had not been determined, the highest concentration tested was 10 microM.
Cell Culture. All cells were maintained in an incubator at 37 degrees C and 5% CO2 with 95% humidity. The PDC lines were cultured according to standard operating procedures established by the NCI PDMR (https://pdmr.cancer.gov/sops/default.htm). All PDCs were thawed and cultured in Matrigel-coated flasks prepared with a working solution of 1X Ham's F-12 nutrient mix, without supplementation (Invitrogen, Waltham, MA, cat. 11765054), 100 U/mL penicillin-streptomycin (Invitrogen, cat. 15140122), and 2.5% Matrigel (Corning Inc., Corning, NY, cat. 354248) for the first three passages. The 354836-022-R-J1-PDC, 475296-252-R-J1-PDC, and 997726-040-R-J2-PDC lines were cultured in 6A media, which includes advanced DMEM/F-12 (Thermo Fisher Scientific, cat. 12634028), 10 mM HEPES (Thermo Fisher Scientific, cat. 15630080), 1X GlutaMAX supplement (Thermo Fisher Scientific, cat. 35050061), 0.1 mg/mL primocin (InvivoGen, San Diego, CA, cat. ant-pm-2), 10% defined fetal bovine serum, heat inactivated (HyClone Laboratories Inc., Logan, UT, cat. SH30070.03HI), 50% L-WRN conditioned media (ATCC, cat. CRL-3276), 1.25 mM N-Acetyl-L-cysteine (Sigma-Aldrich, cat. A9165), 10 mM nicotinamide (Sigma-Aldrich, cat. N0636), 1X B-27 supplement (Thermo Fisher Scientific, cat. 17504044), 1X N-2 supplement (Thermo Fisher Scientific, cat. 17502048), and 10 microM Y-27632 dihydrochloride (Tocris Bioscience, Bristol, United Kingdom, cat. 1254). The 624824-186-R-J2-PDC line was cultured in 6C/Colon 1B media, which includes all 6A media components plus 50 ng/mL human EGF recombinant protein (Thermo Fisher Scientific, cat. PHG0311). […]

[1] = second compound 0.0316 µM, first compound 0.000316 µM
[2] = second compound 0.0316 µM, first compound 0.001 µM
[3] = second compound 0.0316 µM, first compound 0.00316 µM
[4] = second compound 0.0316 µM, first compound 0.01 µM
[5] = second compound 0.0316 µM, first compound 0.0316 µM
[6] = second compound 0.0316 µM, first compound 0.1 µM
[7] = second compound 0.1 µM, first compound 0.000316 µM
[8] = second compound 0.1 µM, first compound 0.001 µM
[9] = second compound 0.1 µM, first compound 0.00316 µM
[10] = second compound 0.1 µM, first compound 0.01 µM
[11] = second compound 0.1 µM, first compound 0.0316 µM
[12] = second compound 0.1 µM, first compound 0.1 µM
[13] = second compound 0.316 µM, first compound 0.000316 µM
[14] = second compound 0.316 µM, first compound 0.001 µM
[15] = second compound 0.316 µM, first compound 0.00316 µM
[16] = second compound 0.316 µM, first compound 0.01 µM
[17] = second compound 0.316 µM, first compound 0.0316 µM
[18] = second compound 0.316 µM, first compound 0.1 µM
[19] = second compound 1 µM, first compound 0.000316 µM
[20] = second compound 1 µM, first compound 0.001 µM
[21] = second compound 1 µM, first compound 0.00316 µM
[22] = second compound 1 µM, first compound 0.01 µM
[23] = second compound 1 µM, first compound 0.0316 µM
[24] = second compound 1 µM, first compound 0.1 µM
[25] = second compound 3.16 µM, first compound 0.000316 µM
[26] = second compound 3.16 µM, first compound 0.001 µM
[27] = second compound 3.16 µM, first compound 0.00316 µM
[28] = second compound 3.16 µM, first compound 0.01 µM
[29] = second compound 3.16 µM, first compound 0.0316 µM
[30] = second compound 3.16 µM, first compound 0.1 µM
[31] = second compound 10 µM, first compound 0.000316 µM
[32] = second compound 10 µM, first compound 0.001 µM
[33] = second compound 10 µM, first compound 0.00316 µM
[34] = second compound 10 µM, first compound 0.01 µM
[35] = second compound 10 µM, first compound 0.0316 µM
[36] = second compound 10 µM, first compound 0.1 µM
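Also: spheroids exposed to compounds for seven days.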
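For viability, T/C in this document: 100% = DMSO vehicle control viability.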

`CC(=O)c1c(C)c2cnc(Nc3ccc(N4CCNCC4)cn3)nc2n(C2CCCC2)c1=O` + CC(Nc1ncnc2nc[nH]c12)c1cc2cccc(Cl)c2c(=O)n1-c1ccccc1 was tested, and the pIC50 (second compound 0.0316 µM) was < 7.00, the pIC50 (second compound 0.1 µM) was < 7.00 and the pIC50 (second compound 0.316 µM) was < 7.00. For the same molecule, the pIC50 (second compound 1 µM) was < 7.00, the pIC50 (second compound 3.16 µM) was < 7.00 and the pIC50 (second compound 10 µM) was < 7.00. It also gave a viability, T/C [1] of 100%, a viability, T/C [2] of 112% and a viability, T/C [3] of 98.8%. The viability, T/C [4] was 102%, the viability, T/C [5] was 101% and the viability, T/C [6] was 106%. It also gave a viability, T/C [7] of 104%, a viability, T/C [8] of 104% and a viability, T/C [9] of 108%. For the same molecule, the viability, T/C [10] was 109%, the viability, T/C [11] was 103% and the viability, T/C [12] was 97.4%. For the same molecule, the viability, T/C [13] was 99.6%, the viability, T/C [14] was 105% and the viability, T/C [15] was 91.1%. It also gave a viability, T/C [16] of 110%, a viability, T/C [17] of 95.3% and a viability, T/C [18] of 104%. The viability, T/C [19] was 108%, the viability, T/C [20] was 107% and the viability, T/C [21] was 94.1%. It also gave a viability, T/C [22] of 106%, a viability, T/C [23] of 99.2% and a viability, T/C [24] of 106%. The viability, T/C [25] was 100%, the viability, T/C [26] was 108% and the viability, T/C [27] was 104%. For the same molecule, the viability, T/C [28] was 97%, the viability, T/C [29] was 100% and the viability, T/C [30] was 103%. For the same molecule, the viability, T/C [31] was 93%, the viability, T/C [32] was 94.8% and the viability, T/C [33] was 92.6%. The viability, T/C [34] was 98.2%, the viability, T/C [35] was 92.3% and the viability, T/C [36] was 87.5%.
With `Cn1ncnc1[C@H]1c2n[nH]c(=O)c3cc(F)cc(c23)N[C@@H]1c1ccc(F)cc1` + CC(Nc1ncnc2nc[nH]c12)c1cc2cccc(Cl)c2c(=O)n1-c1ccccc1 the pIC50 (second compound 0.0316 µM) was < 7.00, the pIC50 (second compound 0.1 µM) was < 7.00 and the pIC50 (second compound 0.316 µM) was < 7.00. For the same molecule, the pIC50 (second compound 1 µM) was < 7.00, the pIC50 (second compound 3.16 µM) was < 7.00 and the pIC50 (second compound 10 µM) was < 7.00. It also gave a viability, T/C [1] of 110%, a viability, T/C [2] of 94.2% and a viability, T/C [3] of 89.2%. For the same molecule, the viability, T/C [4] was 109%, the viability, T/C [5] was 89.5% and the viability, T/C [6] was 77.1%. It also gave a viability, T/C [7] of 94.7%, a viability, T/C [8] of 101% and a viability, T/C [9] of 91.8%. It also gave a viability, T/C [10] of 96.7%, a viability, T/C [11] of 97.4% and a viability, T/C [12] of 84%. It also gave a viability, T/C [13] of 92.6%, a viability, T/C [14] of 103% and a viability, T/C [15] of 102%. The viability, T/C [16] was 105%, the viability, T/C [17] was 85.8% and the viability, T/C [18] was 85.2%. For the same molecule, the viability, T/C [19] was 102%, the viability, T/C [20] was 102% and the viability, T/C [21] was 103%. It also gave a viability, T/C [22] of 95.5%, a viability, T/C [23] of 90.9% and a viability, T/C [24] of 86.2%. For the same molecule, the viability, T/C [25] was 92.9%, the viability, T/C [26] was 91.1% and the viability, T/C [27] was 87.7%. For the same molecule, the viability, T/C [28] was 95.5%, the viability, T/C [29] was 84.1% and the viability, T/C [30] was 79.9%. The viability, T/C [31] was 88.1%, the viability, T/C [32] was 80.8% and the viability, T/C [33] was 73.8%. It also gave a viability, T/C [34] of 78.6%, a viability, T/C [35] of 74.3% and a viability, T/C [36] of 61.5%.

From PubChem BioAssay AID1963982 (Molecular Pharmacology Branch, DTP, NCI, 2024)
